Laboratory results published in PMC5733122, “Purification, Characterization, and Mode of Action of Pentocin JL-1, a Novel Bacteriocin Isolated from Lactobacillus pentosus, against Drug-Resistant Staphylococcus aureus” (BioMed Research International, 2017).

Assays:
[1] = system: Bacillus subtilis CGMCC1.1627; test: Agar-well diffusion test; assay type: cell-based
Procedure: (§1) The intestinal tracts of C. punctatum (grey carpet shark) were dissected and homogenized in 20 mL saline solution under sterile conditions and were then plated in serial dilutions in deMan, Rogosa, and Sharpe (MRS) medium. The plates were incubated aerobically at 30°C for 24 h. Several colonies were picked at random and incubated again in MRS broth. For screening for bacteriocin-producing strains, the agar-well diffusion test was used to detect antimicrobial activity in cell-free supernatants (filtered through a 0.22 μm Millipore filter) obtained by centrifugation (10,000g, 30 min, 4°C) after 18, 36, 60, and 72 h incubation. The Gram-positive strain MRSA GIM 1.771 and the Gram-negative strain Escherichia coli O157:H7 GIM 1.707 were used as indicator strains. Before the experiments, the indicator strains were grown to 10^6 CFU/mL. Then, 1 mL of the culture was mixed with 100 mL soft agar medium and poured onto individual Petri dishes. Subsequently, 8 mm diameter wells were punched onto the plates, and each well was filled with 100 μL of the cell-free supernatants under sterile conditions. The plates were incubated overnight at their respective optimum temperatures, and the clear zones of inhibition were measured in diameter and indicated the presence of antimicrobial activity. In our study, all bacteria culture media and chemical reagents were supplied by Sigma-Aldrich (USA).
(§2) The agar-well diffusion test as described previously was used to detect the antimicrobial activity of the purified pentocin JL-1 (15 μg/mL, pH 5.5). LAB strains were grown in MRS broth at 30°C for 16 h. Other Gram-positive indicator strains were grown in Tryptone Soy Broth (TSB) medium at 37°C and the Gram-negative indicator strains were grown in Luria-Bertani broth medium at 37°C.

[2] = system: Enterococcus faecalis ATCC51575; test: Agar-well diffusion test; assay type: cell-based
Procedure: as §1, §2

[3] = system: Lactobacillus acidophilus ATCC314; test: Agar-well diffusion test; assay type: cell-based
Procedure: as §1, §2

[4] = system: Lactobacillus casei ATCC393; test: Agar-well diffusion test; assay type: cell-based; conditions: purified pentocin JL-1 15 μg/mL, pH 5.5, inhibition zone diameter class incl. 8 mm well
Procedure: as §1, §2

[5] = system: Listeria monocytogenes ATCC19112; test: Agar-well diffusion test; assay type: cell-based
Procedure: as §1, §2

[6] = system: Micrococcus luteus CGMCC1.2299; test: Agar-well diffusion test; assay type: cell-based
Procedure: as §1, §2

[7] = system: Multidrug-resistant S. aureus 1; test: Agar-well diffusion test; assay type: cell-based; conditions: 15 μg/mL, pH 5.5, pork isolate resistant to FOX, TET, mean ± SD, triplicate
Procedure: as §1, §2

[8] = system: Multidrug-resistant S. aureus 2; test: Agar-well diffusion test; assay type: cell-based; conditions: 15 μg/mL, pH 5.5, pork isolate resistant to FOX, GEN, mean ± SD, triplicate
Procedure: as §1, §2

[9] = system: Multidrug-resistant S. aureus 3; test: Agar-well diffusion test; assay type: cell-based; conditions: 15 μg/mL, pH 5.5, pork isolate resistant to FOX, TET, GEN, mean ± SD, triplicate
Procedure: as §1, §2

[10] = system: Multidrug-resistant S. aureus 4; test: Agar-well diffusion test; assay type: cell-based; conditions: 15 μg/mL, pH 5.5, pork isolate resistant to FOX, TET, C, mean ± SD, triplicate
Procedure: as §1, §2

[11] = system: Multidrug-resistant S. aureus 5; test: Agar-well diffusion test; assay type: cell-based; conditions: 15 μg/mL, pH 5.5, pork isolate resistant to FOX, TET, GEN, C, mean ± SD, triplicate
Procedure: as §1, §2

[12] = system: Multidrug-resistant S. aureus 6; test: Agar-well diffusion test; assay type: cell-based; conditions: 15 μg/mL, pH 5.5, pork isolate resistant to CIP, FOX, C, SXT, TET, GEN, mean ± SD, triplicate
Procedure: as §1, §2

[13] = system: Pseudomonas aeruginosa CGMCC1.1785; test: Agar-well diffusion test; assay type: cell-based
Procedure: as §1, §2

[14] = system: Vibrio parahaemolyticus GIM1.306; test: Agar-well diffusion test; assay type: cell-based
Procedure: as §1, §2

[15] = pH stability, residual antibacterial activity; assay type: physicochemical; conditions: 1 h; for Residual inhibitory activity (inhibition zone diameter, mm): 15 μg/mL in 0.05% acetic acid, agar-well diffusion vs MRSA GIM 1.771, mean ± SD, triplicate; for Residual inhibitory activity (inhibition zone diameter, mm) / Residual inhibitory activity (%): readjusted to pH 5.5; for Residual inhibitory activity (%): 15 μg/mL, vs MRSA GIM 1.771, relative to control pH 5.5
Procedure: To determine pH stability, lyophilized purified pentocin JL-1 was dissolved in 0.05% (w/v) acetic acid at 15 μg/mL and was adjusted with 1.0 M HCl or 1.0 M NaOH to different pH values of 2.0, 3.0, 4.0, 5.0, 6.0, 7.0, 8.0, 9.0, and 10.0. Then the above samples were incubated at 37°C for 1 h and were adjusted to pH 5.5 with 1.0 M HCl or 1.0 M NaOH.
The residual antibacterial activities of the above samples were calculated using the agar-well diffusion test with MRSA GIM 1.771 as the indicator strain. […] Lyophilized pentocin JL-1 dissolved in 0.05% (w/v) acetic acid at 15 μg/mL with pH 5.5 was used as a control in all assays.

MRSA GIM 1.771 = test: Growth curve, OD600; assay type: cell-based, Staphylococcus aureus; conditions: 1x MIC added after 6 h (exponential phase), TSB, 37°C, 24 h
Procedure: The bacteriostatic or bactericidal mode of action of pentocin JL-1 was tested as described previously by Zhu et al. with some modifications. MRSA GIM 1.771 was cultivated to the exponential phase in 100 mL of TSB culture medium. The lyophilized purified pentocin JL-1 dissolved in 0.05% (w/v) acetic acid was added to the cultures at a final concentration of 1x MIC and the same volume of 0.05% (w/v) acetic acid was added to the aforementioned media as a control. Samples were incubated at 37°C and bacterial suspensions were taken each hour for 24 h, and the absorbance was measured at OD600. In addition, the viable cell counts on TSB agar medium after the addition of 1x MIC, 2x MIC, and 3x MIC of pentocin JL-1 were also quantified every 10 min for 1 h.

[16] = purified pentocin JL-1 15 μg/mL, pH 5.5, inhibition zone diameter class incl. 8 mm well

VAKVAR [pentocin JL-1, novel bacteriocin produced by Lactobacillus pentosus JL-1, purified by four-step chromatography, molecular mass 2987.23 Da, cationic and hydrophobic peptide]
inhibitory activity ([1]; 15 μg/mL, pH 5.5): inhibited | Antimicrobial activity [1, 16]: ++ (++: 15–19) | inhibitory activity ([2]; 15 μg/mL, pH 5.5): inhibited | Antimicrobial activity [2, 16]: ++ (++: 15–19) | inhibitory activity ([3]; 15 μg/mL, pH 5.5): no inhibitory activity | Antimicrobial activity [3, 16]: − | Antimicrobial activity [4]: +++ (+++: 20–25) | inhibitory activity ([5]; 15 μg/mL, pH 5.5): inhibited | Antimicrobial activity [5, 16]: ++ (++: 15–19) | inhibitory activity ([6]; 15 μg/mL, pH 5.5): inhibited | Antimicrobial activity [6, 16]: ++ (++: 15–19) | Inhibitor zone [7]: 23.8 ± 0.8 mm | Inhibitor zone [8]: 22.5 ± 1.2 mm | Inhibitor zone [9]: 24.3 ± 0.7 mm | Inhibitor zone [10]: 22.4 ± 0.6 mm | Inhibitor zone [11]: 23.9 ± 1.5 mm | Inhibitor zone [12]: 23.7 ± 0.6 mm | inhibitory activity ([13]; 15 μg/mL, pH 5.5): inhibited | Antimicrobial activity [13, 16]: + (+: 10–14) | inhibitory activity ([14]; 15 μg/mL, pH 5.5): no inhibitory activity | Antimicrobial activity [14, 16]: − | pH range tolerated / stable ([15]; 37°C, no significant differences in antimicrobial activity (p > 0.05)): 5–7 | Residual inhibitory activity (inhibition zone diameter, mm) ([15]; pH 2.0, 37°C): 15.7 ± 1.4 mm | Residual inhibitory activity (%) ([15]; pH 2.0, 37°C): 65.69^∗ % | Residual inhibitory activity (inhibition zone diameter, mm) ([15]; pH 3.0, 37°C): 16.2 ± 1.8 mm | Residual inhibitory activity (%) ([15]; pH 3.0, 37°C): 67.78^∗ % | Residual inhibitory activity (inhibition zone diameter, mm) ([15]; pH 4.0, 37°C): 16.8 ± 1.2 mm | Residual inhibitory activity (%) ([15]; pH 4.0, 37°C): 70.29^∗ % | Residual inhibitory activity (inhibition zone diameter, mm) ([15]; pH 5.0, 37°C): 23.9 ± 0.4 mm | Residual inhibitory activity (%) ([15]; pH 5.0, 37°C): 100.00% | Residual inhibitory activity (inhibition zone diameter, mm) ([15]; pH 6.0, 37°C): 23.9 ± 0.8 mm | Residual inhibitory activity (%) ([15]; pH 6.0, 37°C): 100.00% | Residual inhibitory activity (inhibition zone diameter, mm) ([15]; pH 7.0, 37°C): 23.6 ± 0.6 mm | Residual inhibitory activity (%) ([15]; pH 7.0, 37°C): 98.74% | Residual inhibitory activity (inhibition zone diameter, mm) ([15]; pH 8.0, 37°C): 14.6 ± 0.3 mm | Residual inhibitory activity (%) ([15]; pH 8.0, 37°C): 61.09^∗ % | Residual inhibitory activity (inhibition zone diameter, mm) ([15]; pH 9.0, 37°C): 12.9 ± 0.9 mm | Residual inhibitory activity (%) ([15]; pH 9.0, 37°C): 53.97^∗ % | Residual inhibitory activity (inhibition zone diameter, mm) ([15]; pH 10.0, 37°C): 12.5 ± 1.6 mm | Residual inhibitory activity (%) ([15]; pH 10.0, 37°C): 52.30^∗ % | OD600 values after addition (MRSA GIM 1.771): nearly stable
